Measured values from the supplement of paper PMC10307832.

Tests used:
Assay in all cases: relative viability (nuclei count vs DMSO), 5 days (fraction); higher = more cells survive
201T = test system: 201T
In short: (§1)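 The day after seeding in 1536-well plates, lung cancer cell lines were treated by pin tool with a single drug, or with a fixed anchor-drug dose together with five library-drug doses (not always all listed) in √10 steps. After 5 days, a combined fix-and-stain solution (final 0.05% Triton X-100, 1% formaldehyde, 1 ug/ml Hoechst) was added. Nuclei counted on 4× images gave relative viability as treated counts over vehicle counts, reported as the median of duplicate plates.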

ABC-1 = test system: ABC-1
In short: as §1

BEN = test system: BEN
In short: as §1

NCI-H838 = test system: NCI-H838
In short: as §1

NCI-H520 = test system: NCI-H520
In short: as §1

HCC-44 = test system: HCC-44
In short: as §1

NCI-H460 = test system: NCI-H460
In short: as §1

CAL-12T = test system: CAL-12T
In short: as §1

NCI-H1563 = test system: NCI-H1563
In short: as §1

EKVX = test system: EKVX
In short: as §1

COR-L 105 = test system: COR-L 105
In short: as §1

NCI-H322M = test system: NCI-H322M
In short: as §1

NCI-H1651 = test system: NCI-H1651
In short: as §1

LU99A = test system: LU99A
In short: as §1

EMC-BAC-2 = test system: EMC-BAC-2
In short: as §1

NCI-H2023 = test system: NCI-H2023
In short: as §1

NCI-H727 = test system: NCI-H727
In short: as §1

PC-3 [JPC-3] = test system: PC-3 [JPC-3]
In short: as §1

HCC-15 = test system: HCC-15
In short: as §1

SMILES: CCNC(=O)c1noc(-c2cc(C(C)C)c(O)cc2O)c1-c1ccc(CN2CCOCC2)cc1 [Luminespib] + CC(C)C[C@H](NC(=O)[C@H](Cc1ccccc1)NC(=O)c1cnccn1)B(O)O [Bortezomib] (partner 0.002 µM)
- relative viability (201T; first compound 0.002 µM): 1.11
- relative viability (201T; first compound 0.006325 µM): 1.07
- relative viability (201T; first compound 0.02 µM): 0.937
- relative viability (201T; first compound 0.06325 µM): 1.09
- relative viability (201T; first compound 0.2 µM): 1.09
- relative viability (ABC-1; first compound 0.002 µM): 0.258
- relative viability (ABC-1; first compound 0.006325 µM): 0.315
- relative viability (ABC-1; first compound 0.02 µM): 0.238
- relative viability (ABC-1; first compound 0.06325 µM): 0.267
- relative viability (ABC-1; first compound 0.2 µM): 0.255
- relative viability (BEN; first compound 0.002 µM): 0.914
- relative viability (BEN; first compound 0.006325 µM): 0.542
- relative viability (BEN; first compound 0.02 µM): 0.438
- relative viability (BEN; first compound 0.06325 µM): 0.424
- relative viability (BEN; first compound 0.2 µM): 0.239
- relative viability (NCI-H838; first compound 0.002 µM): 0.877
- relative viability (NCI-H838; first compound 0.006325 µM): 0.723
- relative viability (NCI-H838; first compound 0.02 µM): 0.389
- relative viability (NCI-H838; first compound 0.06325 µM): 0.0924
- relative viability (NCI-H838; first compound 0.2 µM): 0.0934
- relative viability (NCI-H520; first compound 0.002 µM): 0.556
- relative viability (NCI-H520; first compound 0.006325 µM): 0.51
- relative viability (NCI-H520; first compound 0.02 µM): 0.41
- relative viability (NCI-H520; first compound 0.06325 µM): 0.103
- relative viability (NCI-H520; first compound 0.2 µM): 0.109
- relative viability (HCC-44; first compound 0.002 µM): 0.895
- relative viability (HCC-44; first compound 0.006325 µM): 0.881
- relative viability (HCC-44; first compound 0.02 µM): 1.09
- relative viability (HCC-44; first compound 0.06325 µM): 0.139
- relative viability (HCC-44; first compound 0.2 µM): 0.145
- relative viability (NCI-H460; first compound 0.002 µM): 1.09
- relative viability (NCI-H460; first compound 0.006325 µM): 1.14
- relative viability (NCI-H460; first compound 0.02 µM): 0.0229
- relative viability (NCI-H460; first compound 0.06325 µM): 0.011
- relative viability (NCI-H460; first compound 0.2 µM): 0.0138
- relative viability (CAL-12T; first compound 0.002 µM): 1.04
- relative viability (CAL-12T; first compound 0.006325 µM): 0.929
- relative viability (CAL-12T; first compound 0.02 µM): 0.539
- relative viability (CAL-12T; first compound 0.06325 µM): 0.147
- relative viability (CAL-12T; first compound 0.2 µM): 0.149
- relative viability (NCI-H1563; first compound 0.002 µM): 0.956
- relative viability (NCI-H1563; first compound 0.006325 µM): 0.821
- relative viability (NCI-H1563; first compound 0.02 µM): 0.535
- relative viability (NCI-H1563; first compound 0.06325 µM): 0.479
- relative viability (NCI-H1563; first compound 0.2 µM): 0.507
- relative viability (EKVX; first compound 0.002 µM): 0.998
- relative viability (EKVX; first compound 0.006325 µM): 1.03
- relative viability (EKVX; first compound 0.02 µM): 0.852
- relative viability (EKVX; first compound 0.06325 µM): 0.824
- relative viability (EKVX; first compound 0.2 µM): 0.0943
- relative viability (COR-L 105; first compound 0.002 µM): 0.992
- relative viability (COR-L 105; first compound 0.006325 µM): 0.75
- relative viability (COR-L 105; first compound 0.02 µM): 0.342
- relative viability (COR-L 105; first compound 0.06325 µM): 0.176
- relative viability (COR-L 105; first compound 0.2 µM): 0.206
- relative viability (NCI-H322M; first compound 0.002 µM): 1.21
- relative viability (NCI-H322M; first compound 0.006325 µM): 1.27
- relative viability (NCI-H322M; first compound 0.02 µM): 1.05
- relative viability (NCI-H322M; first compound 0.06325 µM): 1.32
- relative viability (NCI-H322M; first compound 0.2 µM): 0.814
- relative viability (NCI-H1651; first compound 0.002 µM): 0.947
- relative viability (NCI-H1651; first compound 0.006325 µM): 0.864
- relative viability (NCI-H1651; first compound 0.02 µM): 0.91
- relative viability (NCI-H1651; first compound 0.06325 µM): 0.89
- relative viability (NCI-H1651; first compound 0.2 µM): 0.793
- relative viability (LU99A; first compound 0.002 µM): 1.3
- relative viability (LU99A; first compound 0.006325 µM): 1.11
- relative viability (LU99A; first compound 0.02 µM): 0.538
- relative viability (LU99A; first compound 0.06325 µM): 0.105
- relative viability (LU99A; first compound 0.2 µM): 0.117
- relative viability (EMC-BAC-2; first compound 0.002 µM): 1.1
- relative viability (EMC-BAC-2; first compound 0.006325 µM): 1.02
- relative viability (EMC-BAC-2; first compound 0.02 µM): 0.844
- relative viability (EMC-BAC-2; first compound 0.06325 µM): 1.1
- relative viability (EMC-BAC-2; first compound 0.2 µM): 0.913
- relative viability (NCI-H2023; first compound 0.002 µM): 1.04
- relative viability (NCI-H2023; first compound 0.006325 µM): 0.958
- relative viability (NCI-H2023; first compound 0.02 µM): 0.29
- relative viability (NCI-H2023; first compound 0.06325 µM): 0.069
- relative viability (NCI-H2023; first compound 0.2 µM): 0.0759
- relative viability (NCI-H727; first compound 0.002 µM): 0.802
- relative viability (NCI-H727; first compound 0.006325 µM): 0.782
- relative viability (NCI-H727; first compound 0.02 µM): 0.379
- relative viability (NCI-H727; first compound 0.06325 µM): 0.23
- relative viability (NCI-H727; first compound 0.2 µM): 0.215
- relative viability (PC-3 [JPC-3]; first compound 0.002 µM): 0.865
- relative viability (PC-3 [JPC-3]; first compound 0.006325 µM): 0.812
- relative viability (PC-3 [JPC-3]; first compound 0.02 µM): 0.977
- relative viability (PC-3 [JPC-3]; first compound 0.06325 µM): 0.942
- relative viability (PC-3 [JPC-3]; first compound 0.2 µM): 0.503
- relative viability (HCC-15; first compound 0.002 µM): 1.03
- relative viability (HCC-15; first compound 0.006325 µM): 0.906
- relative viability (HCC-15; first compound 0.02 µM): 1.11
- relative viability (HCC-15; first compound 0.06325 µM): 0.517
- relative viability (HCC-15; first compound 0.2 µM): 0.152
